Measurements reported in patent US9254308B2, “Kits and methods for the treatment of cancer using gliadin peptides” (BARMARSA RESEARCH LLC, priority 2013, dated 2016).
Where no end group is shown, it is not given here.

How the values were obtained:
A549 cells [1] = assay: Cell count, A549 cells, cisplatin 72-hour treatment; type: cell-based, human; details: A549, 72 h
Experimental: All experiments were conducted in triplicate.

A549 cells [2] = assay: Cell count, A549 cells, 14-day treatment regimen; type: cell-based, human; details: A549, 14 days; 3.3 μM cisplatin
Experimental: All treatments were conducted in triplicate. […] Media was refreshed with the respective treatments every 72 hours.

A549 cells [3] = assay: TUNEL apoptosis assay, A549 cells; type: cell-based, human; details: A549, 72 h, 1 μM gefitinib alone
Experimental: The ability of alpha-gliadin p31-43 to induce apoptosis in cancer cells was assessed. […] Cells were grown in the presence of 5% CO2 at 37° C. in an incubator.
Briefly, A549 cells (1×10^5) were plated in chamber slides and allowed to adhere overnight. […] After the 72-hour treatment, the cells were fixed with 4% formaldehyde in PBS (pH 7.4) for 25 minutes at room temperature, then washed twice for 5 minutes in PBS, permeabilized in 0.2% Triton X-100 solution in PBS for 5 minutes at room temperature, and finally washed twice for 5 minutes in PBS. Apoptosis was measured using the DeadEnd™ Colorimetric TUNEL System (Promega, Madison, Wis.) according to the manufacturer's instructions. At the end of the assay, the cells were mounted and observed under the microscope.

[4] = system: A549 human lung cancer xenograft; assay: A549 human lung cancer xenograft model, tumor volume; type: in vivo, nude mice; details: alone or with 200 μg gliadin i.v.; for Mean Tumor Volume: 150 mg/kg gefitinib by gavage once daily 14 days
Excerpt: Six-week old female nude mice (Harlan Laboratories, Indianapolis, Ind.) were quarantined for 3 days and housed 5 mice per cage, with a 12-hour light-dark cycle, and a relative humidity of 50%. Drinking water and diet were supplied to the animals ad libitum. All animals were housed under pathogen-free conditions. […] The animals were monitored for two weeks following the 14-day treatment period. Tumor measurements were initiated as soon as the tumor formed a palpable mass and measured twice weekly.

NSCLC = details: Caucasian NSCLC patients; Gottschling 2012; cited from earlier work
A549 NSCLC cells = assay: MTT growth inhibition, A549 cells, 72-hour treatment
Experimental: (§1) Cells were kept at 37° C. in a humidified atmosphere of 5% CO2 and grown until they reached a confluency of 90%. Cells were then washed, trypsinized, and counted using a Coulter counter.
A549 NSCLC cells were maintained and cultured as described above. […] Cells were plated at a density of 10,000 cells/well in 24-well cell culture plates and allowed to adhere for 24 hours. […] All experiments were conducted in sextuplicate. […] Following 72 hours of treatment, growth inhibition was evaluated by the 3-(4,5-dimethylthiazol-2-yl)-2,5-diphenyltetrazolium bromide (MTT) assay (Roche Diagnostics Corporation, Indianapolis, Ind.) according to the manufacturer's instructions. The absorbance at 570 nm was measured using a plate reader (BioTek, Winooski, Vt.).

[5] = system: PANC-1 pancreatic carcinoma cells; assay: MTT growth inhibition, PANC-1 cells, 72-hour treatment; details: for Mean absorbance (570 nm): PANC-1, 72 h, 1 μg/mL gefitinib or erlotinib alone
Experimental: as §1
(§2) Cells were plated at a density of 10,000 cells/well in 24-well cell culture plates and allowed to adhere for 24 hours. […] All experiments were conducted in sextuplicate. […] Following 72 hours of treatment, growth inhibition was evaluated by the MTT assay according to the manufacturer's instructions. The absorbance at 570 nm was measured using a plate reader.

[6] = system: PANC-1 human pancreatic carcinoma cells; assay: Cell count, PANC-1 cells, 5-FU 72-hour treatment; type: cell-based; details: PANC-1, 72 h
PANC-1 cells = assay: Cell count, PANC-1 cells, 14-day treatment regimen; type: cell-based, human
Experimental: All treatments were conducted in triplicate. […] Media was refreshed with the respective treatments every 72 hours. After 14 days of treatment, cells were trypsinized and counted.

[7] = system: NCI-H1975 NSCLC cells (EGFR L858R, T790M); assay: MTT growth inhibition, NCI-H1975 cells, 72-hour treatment
Experimental: as §1, §2

[8] = system: 5-FU-resistant PANC-1 cells; assay: Cell count, surviving 5-FU-resistant PANC-1 cells, 7-day gliadin treatment; type: cell-based, human; details: 100 μg/mL or 200 μg/mL for 7 additional days
Experimental: In order to examine the effects of alpha-gliadin peptide p31-43 on PANC-1 cells exposed to 5-FU for an extended period of time (14 days), an experiment was conducted on the surviving, i.e., resistant, cell population (4%) from the previous experiment. Briefly, after counting viable cells on day 14 of treatment, surviving cells were replated at a density of 5,000 cells per well. The following day, cells were treated with vehicle or 100 μg/mL or 200 μg/mL of alpha-gliadin peptide p31-43. Media containing the respective treatments was refreshed on day 3 and 6. On day 7, cells were trypsinized and counted.

[9] = Toxicity in BALB/c mice (body weight, behavior, deaths); type: in vivo; details: female BALB/c mice
Experimental: The toxicity of alpha-gliadin peptide p31-43 in animals was evaluated. Five- to six-week old female BALB/c mice were dosed with vehicle (100 μL DMSO/saline) administered subcutaneously once a day for five days (Group 1) or 200 μg of alpha-gliadin peptide p31-43 in vehicle administered subcutaneously once a day for five days (Group 2). To prepare the gliadin solution, 70 μL of sterile DMSO was added to 1 mg of alpha-gliadin peptide p31-43 and vortexed to dissolve the peptide. After the peptide was dissolved, 430 μL of sterile 0.9% sodium chloride was added and vortexed to create a 1000 μg/500 μL solution of alpha-gliadin peptide p31-43.
Toxicity was evaluated using daily weight measurements and behavior assessments. […] At the end of the study, the mean body weights (±SE) were 19.8±0.4 grams for Group 1 (n=5) and 20.0±0.3 grams for Group 2 (n=5). […] Alpha-gliadin peptide p31-43 was therefore tolerated at a dosing level of 10 mg/kg/day without apparent toxicity.

[10] = 200 μg subcutaneously once a day for five days

Question: Which “% Inhibition” value (A549 cells [1]; cisplatin 0.103 μM) does the source give for `N.N.[Cl][Pt][Cl]` [cisplatin] here?
Answer: 13.5%

Question: What about the “Mean Cell” value (A549 cells [1]; cisplatin 0.103 μM) of the same molecule?
Answer: 166,883

Question: And the “% Inhibition” value (A549 cells [1]; cisplatin 0.207 μM)?
Answer: 21.8%

Question: And the “Mean Cell” value (A549 cells [1]; cisplatin 0.207 μM)?
Answer: 150,917

Question: And the “% Inhibition” value (A549 cells [1]; cisplatin 0.413 μM)?
Answer: 42.0%

Question: What about the “Mean Cell” value (A549 cells [1]; cisplatin 0.413 μM) of the same molecule?
Answer: 111,917

Question: And the “% Inhibition” value (A549 cells [1]; cisplatin 0.825 μM)?
Answer: 74.9%

Question: And the “Mean Cell” value (A549 cells [1]; cisplatin 0.825 μM)?
Answer: 48,400

Question: And the “% Inhibition” value (A549 cells [1]; cisplatin 1.650 μM)?
Answer: 91.6%

Question: What about the “Mean Cell” value (A549 cells [1]; cisplatin 1.650 μM) of the same molecule?
Answer: 16,117

Question: What about the “% Inhibition” value (A549 cells [1]; cisplatin 3.300 μM) of the same molecule?
Answer: 94.8%

Question: And the “Mean Cell” value (A549 cells [1]; cisplatin 3.300 μM)?
Answer: 10,033

Question: And the “% Inhibition” value (A549 cells [2])?
Answer: 98%

Question: And the “Mean Cell Number/mL” value (A549 cells [2])?
Answer: 5,780 /mL

Question: With `COc1cc2ncnc(Nc3ccc(F)c(Cl)c3)c2cc1OCCCN1CCOCC1` [gefitinib] as the molecule, how does the Mean % apoptotic (A549 cells [3]) read?
Answer: 19%

Question: And the tumor doubling time ([4]; A549 xenograft, 150 mg/kg gefitinib)?
Answer: 24.48 days

Question: What about the “Mean Tumor Volume” value ([4]; Study Day 4 (dosing period)) of the same molecule?
Answer: 47.74 ± 2.87 mm^3

Question: What about the “Mean Tumor Volume” value ([4]; Study Day 7 (dosing period)) of the same molecule?
Answer: 51.67 ± 5.69 mm^3

Question: And the “Mean Tumor Volume” value ([4]; Study Day 11 (dosing period))?
Answer: 49.30 ± 3.77 mm^3

Question: What about the “Mean Tumor Volume” value ([4]; Study Day 14 (dosing period)) of the same molecule?
Answer: 60.43 ± 5.35 mm^3

Question: What about the “Mean Tumor Volume” value ([4]; Study Day 18 (recovery period)) of the same molecule?
Answer: 75.40 ± 9.05 mm^3

Question: What about the “Mean Tumor Volume” value ([4]; Study Day 21 (recovery period)) of the same molecule?
Answer: 95.22 ± 11.15 mm^3

Question: What about the “Mean Tumor Volume” value ([4]; Study Day 25 (recovery period)) of the same molecule?
Answer: 157.69 ± 14.76 mm^3

Question: And the “Mean Tumor Volume” value ([4]; Study Day 28 (recovery period, termination), 150 mg/kg)?
Answer: 239.25±32.78 mm^3

Question: And the “patients exhibiting significant changes in disease progression following therapy” value (NSCLC)?
Answer: about 10%

Question: What about the “Mean absorbance (570 nm)” value (A549 NSCLC cells) of the same molecule?
Answer: 1.35

Question: And the “Mean absorbance (570 nm)” value [5]?
Answer: 2.11

Question: With `O=c1[nH]cc(F)c(=O)[nH]1` [5-FU, 5-Fluorouracil] as the molecule, how does the inhibition at 6.25 µM ([6]; Homo sapiens, 5-FU 6.25 μM) read?
Answer: 63.3%

Question: And the inhibition at 12.5 µM ([6]; Homo sapiens, 5-FU 12.5 μM)?
Answer: 63%

Question: And the inhibition at 25 µM ([6]; Homo sapiens, 5-FU 25.0 μM)?
Answer: 62.8%

Question: What about the inhibition at 50 µM ([6]; Homo sapiens, 5-FU 50.0 μM) of the same molecule?
Answer: 63%

Question: And the inhibition at 100 µM ([6]; Homo sapiens, 5-FU 100.0 μM)?
Answer: 68.5%

Question: And the inhibition at 200 µM ([6]; Homo sapiens, 5-FU 200.0 μM)?
Answer: 73.6%

Question: And the inhibition at 400 µM ([6]; Homo sapiens, 5-FU 400.0 μM)?
Answer: 79.2%

Question: What about the “Mean Cell Number/mL” value ([6]; 5-FU 6.25 μM) of the same molecule?
Answer: 116,500 /mL

Question: And the “Mean Cell Number/mL” value ([6]; 5-FU 12.5 μM)?
Answer: 117,500 /mL

Question: And the “Mean Cell Number/mL” value ([6]; 5-FU 25.0 μM)?
Answer: 118,200 /mL

Question: And the “Mean Cell Number/mL” value ([6]; 5-FU 50.0 μM)?
Answer: 100,200 /mL

Question: And the “Mean Cell Number/mL” value ([6]; 5-FU 100.0 μM)?
Answer: 117,600 /mL

Question: And the “Mean Cell Number/mL” value ([6]; 5-FU 200.0 μM)?
Answer: 83,900 /mL

Question: And the “Mean Cell Number/mL” value ([6]; 5-FU 400.0 μM)?
Answer: 66,200 /mL

Question: And the inhibition at 6.25 µM (PANC-1 cells; Homo sapiens, 336 h, PANC-1, 14 days, 6.25 μM 5-FU)?
Answer: 96%

Question: What about the “Mean Cell Number/mL” value (PANC-1 cells; PANC-1, 14 days, 6.25 μM 5-FU) of the same molecule?
Answer: 33,233 /mL

Question: And the “surviving 5-FU-resistant population remaining viable, of the initial population” value (PANC-1 cells; PANC-1, following 14-day 5-FU treatment)?
Answer: 4%

Question: Which “patients exhibiting significant changes in disease progression following therapy” value (NSCLC) does the source give for `C#Cc1cccc(Nc2ncnc3cc(OCCOC)c(OCCOC)cc23)c1` [erlotinib] here?
Answer: about 10%

Question: What about the “% Inhibition” value (A549 NSCLC cells) of the same molecule?
Answer: 3.4%

Question: What about the “Mean absorbance (570 nm)” value (A549 NSCLC cells) of the same molecule?
Answer: 1.44

Question: What about the “% Inhibition” value [5] of the same molecule?
Answer: 0%

Question: What about the “Mean absorbance (570 nm)” value [5] of the same molecule?
Answer: 1.98

Question: And the “Mean absorbance (570 nm)” value [7]?
Answer: 1.73

Question: What does the source list for “LGQQQPFPPQQPY [gliadin, alpha-gliadin peptide p31-43]”?
Answer: cell proliferation of surviving 5-FU-treated PANC-1 cells [8]: cell proliferation was significantly suppressed; behavior changes compared to control mice [9, 10]: No behavior changes were observed; treatment-related deaths [9, 10]: no treatment-related deaths; mean body weight (±SE) at the end of the study ([9]; 200 μg subcutaneously once a day for five days, n=5): 20.0±0.3 grams; NOAEL at 120 h ([9]; mouse, in vivo, sc, 200 ug, subcutaneously, five days, read-out: dosing level tolerated without apparent toxicity): 10 mg/kg/day
